Assay results as given in patent US20210238197A1, “NOVEL OXOQUINOLIZINE COMPOUNDS FOR THE TREATMENT AND PROPHYLAXIS OF BACTERIAL INFECTION” (Hoffmann-La Roche Inc., priority 2018, published 2021).
Values after ≈ are worked out from the molar mass of the structure shown. Like-named read-outs stand apart in the source and are kept apart here.

How the values were obtained:
S. aureus (ATCC29213) = experiment: 50% growth inhibitory concentration (IC50) determination assay, S. aureus; assay type: cell-based; conditions: Iso-Sensitest broth, growth by OD 600 nm over 16 h, <0.098 = detection limit
Experimental: (§1) The in vitro antimicrobial activity of the compounds against S. aureus (ATCC29213), K. pneumoniae (ATCC10031), and A. baumannii (ATCC17978), was determined according to the following procedure: The assay used a 10-points Iso-Sensitest broth medium to measure quantitatively the in vitro activity of the compounds against S. aureus ATCC29213, K. pneumoniae ATCC 10031, and A. baumannii ATCC17978. Stock compounds in DMSO were serially two-fold diluted (range from 50 to 0.097 μM final concentration) in 384 wells microtiter plates and inoculated with 49 μL the bacterial suspension in Iso-Sensitest broth medium to have a final cell concentration of ˜5×10^5 CFU/mL in a final volume/well of 50 μL/well. Microtiter plates were incubated at 35±2° C. Bacterial cell growth was determined with the measurement of optical density at λ=600 nm each 20 minutes over a time course of 16 h.

[1] = test system: K. pneumoniae (ATCC10031); experiment: 50% growth inhibitory concentration (IC50) determination assay, K. pneumoniae; assay type: cell-based; conditions: Iso-Sensitest broth, growth by OD 600 nm over 16 h, <0.098 = detection limit
Experimental: as §1

A. baumannii (ATCC17978) = experiment: 50% growth inhibitory concentration (IC50) determination assay, A. baumannii; assay type: cell-based; conditions: Iso-Sensitest broth, growth by OD 600 nm over 16 h, <0.098 = detection limit
Experimental: as §1

[2] = test system: multiple species and strains; experiment: microbe, parasite or virus in culture; set-up: MIC S9 / MIC S7 / MIC S11 / MIC S8 / MIC S10: unit not given beside the values; conditions: for MIC S9: E. coli ATCC 35218; for MIC S11: E. coli ATCC 25922; for MIC S7: P. aeruginosa ATCC 27853
Experimental: The MIC of antibacterial compounds against multiple species and strains was determined using the broth microdilution method according to M07-A10 Clinical and Laboratory Standards Institute (CLSI) guidelines (CLSI (2015) Methods for dilution antimicrobial susceptibility tests for bacteria that grow aerobically; Approved Standard, Tenth Edition. CLSI Document M7-A10 (ISBN 1-56238-987-4). Wayne, Pa.: Clinical and Laboratory Standards Institute, 19087, USA.). In short, bacterial strain preparation was performed on D1 and D2. […] 5-10 well-isolated colonies of similar morphology were selected and re-streaked onto fresh agar plates using sterile loops and incubated for 20-24 hr at 35±2° C. Bacterial strains were subcultured two times to ensure fresh inoculums for MIC screening. […] Alternatively, 1-2 colonies were transferred into 500 μL of saline and OD600 was adjusted to ˜0.1 using an OD meter. Bacterial inoculum was diluted by 1:280 for Gram-positive strains and 1:400 for Gram-negative strains into corresponding medium broth (CAMHB, CAMHB+3% lysed horse blood, HTM) (e.g. 35.6 μL of inoculum into 10 mL of CAMHB or 25 μL of inoculum into 10 mL of CAMHB). For compound plate, the compound stock solutions were prepared in 100% DMSO on the day of MIC screening and used immediately. Compound stock concentration=[(highest testing concentration)×100 μL/2 μL] (e.g. if the required highest testing concentration is 64 μg/mL in assay plates, stock concentration=64 μg/mL×100 μL/2 μL=3.2 mg/mL). […] 1 μL of each well was transferred in a new MTP, which served as the test plate by subsequent inoculation. The bacterial suspension prepared above is dispensed at 98 μL/well within 15 minutes after preparation. Negative controls (lack of bacterial cells) and growth control wells (lack of compound) were included in all plates. MTPs were incubated for 18-24 hours at 35±2° C. in ambient air. The MIC was recorded and CFUs were calculated on Day 4. The assay plate was placed on the top of MIC reader, and the magnification mirror was adjusted to read each wells, recording growth status as raw data. Photo images of each assay plates were recorded using Q Count 530 (Spiral Biotech). The MIC value of each compound, expressed as μg/mL, was determined as the lowest concentration required for complete growth inhibition (no visible growth).

[3] = Staphylococcus aureus, ATCC29213
[4] = Klebsiella pneumoniae, ATCC10031
[5] = Acinetobacter baumannii, ATCC17978
[6] = Acinetobacter baumannii, ATCC19606, read-out: MIC S1, A. baumannii ATCC 19606
[7] = Acinetobacter baumannii, ATCC51432, read-out: MIC S2, A. baumannii ATCC 51432
[8] = Acinetobacter baumannii, ATCCBAA747, read-out: MIC S3, A. baumannii ATCC BAA-747
[9] = Escherichia coli, ATCC25922, read-out: MIC S11, E. coli ATCC 25922
[10] = Escherichia coli, ATCCBAA2340, read-out: MIC S10, E. coli ATCC BAA-2340
[11] = Klebsiella pneumoniae, ATCC10031, read-out: MIC S4, K. pneumoniae ATCC 10031
[12] = Klebsiella pneumoniae, ATCC700603, read-out: MIC S5, K. pneumoniae ATCC 700603
[13] = Klebsiella pneumoniae, ATCCBAA2146, read-out: MIC S6, K. pneumoniae ATCC BAA-2146
[14] = Pseudomonas aeruginosa, ATCC27853, read-out: MIC S7, P. aeruginosa ATCC 27853
[15] = Pseudomonas aeruginosa, ATCCBAA2113, read-out: MIC S8, P. aeruginosa ATCC BAA-2113

Structure (SMILES)	IC50 (S. aureus (ATCC29213); [3]) [nM]	IC50 [1, 4] [nM]	IC50 (A. baumannii (ATCC17978); [5]) [nM]	MIC [2, 6] [µg/mL]	MIC [2, 7] [µg/mL]	MIC [2, 8] [µg/mL]	MIC S9 [2]	MIC [2, 9] [µg/mL]	MIC [2, 10] [µg/mL]	MIC [2, 11] [µg/mL]	MIC [2, 12] [µg/mL]	MIC [2, 13] [µg/mL]	MIC [2, 14] [µg/mL]	MIC [2, 15] [µg/mL]	other results
CNc1cc(F)c(Cl)c2c1[nH]c1ncc(-c3ccc4ccc(C(=O)O)c(=O)n4c3)c(N3CC[C@H]4CN(C)C[C@H]43)c12 [Example 1.07, 7-(5-chloro-6-fluoro-8-(methylamino)-4-((3aS,6aS)-5-methyl-2,3,3a,4,6,6a-hexahydropyrrolo[2,3-c]pyrrol-1-yl)-9H-pyrido[2,3-b]indol-3-yl)-4-oxo-4H-quinolizine-3-carboxylic acid]	< 98	< 98	< 98	0.066 (≈ 0.118 µM)	0.066 (≈ 0.118 µM)	0.263 (≈ 0.469 µM)	0.132	0.049 (≈ 0.0873 µM)	0.132 (≈ 0.235 µM)	0.033 (≈ 0.0588 µM)	1.05 (≈ 1.88 µM)	0.527 (≈ 0.939 µM)	0.527 (≈ 0.939 µM)	8.44 (≈ 15 µM)	
CNc1cc(F)c(F)c2c1[nH]c1ncc(-c3ccc4ccc(C(=O)O)c(=O)n4c3)c(N(C)C)c12 [Example 1.01, 7-(4-(Dimethylamino)-5,6-difluoro-8-(methylamino)-9H-pyrido[2,3-b]indol-3-yl)-4-oxo-411-quinolizine-3-carboxylic acid]	< 98	< 98	< 98	0.057 (≈ 0.123 µM)	0.45 (≈ 0.971 µM)	0.225 (≈ 0.485 µM)	0.113	0.169 (≈ 0.365 µM)	0.225 (≈ 0.485 µM)	0.057 (≈ 0.123 µM)	0.45 (≈ 0.971 µM)	1.8 (≈ 3.89 µM)	0.901 (≈ 1.94 µM)	0.901 (≈ 1.94 µM)	
CNc1cc(F)c(F)c2c1[nH]c1ncc(-c3ccc4c(C)cc(C(=O)O)c(=O)n4c3)c(N3CC[C@H]4CN(C)C[C@H]43)c12 (relative stereo) [Example 2.04, 7-[4-[cis-5-methyl-2,3,3a,4,6,6a-hexahydropyrrolo[2,3-c]pyrrol-1-yl]-5,6-difluoro-8-(methylamino)-9H-pyrido[2,3-b]indol-3-yl]-1-methyl-4-oxo-quinolizine-3-carboxylic acid]	< 98	< 98	< 98	0.461 (≈ 0.825 µM)	0.614 (≈ 1.1 µM)	0.922 (≈ 1.65 µM)	0.614	0.173 (≈ 0.31 µM)	0.922 (≈ 1.65 µM)	0.077 (≈ 0.138 µM)	4.92 (≈ 8.8 µM)	4.92 (≈ 8.8 µM)	2.46 (≈ 4.4 µM)	3.69 (≈ 6.6 µM)	
CNc1cc(F)c(F)c2c1[nH]c1ncc(-c3ccc4ccc(C(=O)O)c(=O)n4c3)c(N3CC[C@@]4(C[C@@H]4N)C3)c12 (single isomer, unassigned) [Example 4.01A]	< 98	< 98	< 98	0.445 (≈ 0.839 µM)	0.445 (≈ 0.839 µM)	0.592 (≈ 1.12 µM)	0.297	0.111 (≈ 0.209 µM)	0.297 (≈ 0.56 µM)	0.074 (≈ 0.139 µM)	2.37 (≈ 4.47 µM)	2.37 (≈ 4.47 µM)	0.592 (≈ 1.12 µM)	1.19 (≈ 2.24 µM)	
CNc1cc(F)c(C#N)c2c1[nH]c1ncc(-c3ccc4ccc(C(=O)O)c(=O)n4c3)c(N3C[C@H]4CCN(C)[C@H]4C3)c12 (single isomer, unassigned) [Example 1.11, 7-[5-cyano-6-fluoro-4-(cis-1-methyl-2,3,3a,4,6,6a-hexahydropyrrolo[3,4-b]pyrrol-5-yl)-8-(methylamino)-9H-pyrido[2,3-b]indol-3-yl]-4-oxo-quinolizine-3-carboxylic acid]	< 98	< 98	< 98	0.26 (≈ 0.471 µM)	0.26 (≈ 0.471 µM)	0.26 (≈ 0.471 µM)	0.260		0.26 (≈ 0.471 µM)	0.033 (≈ 0.0598 µM)	1.04 (≈ 1.88 µM)	1.04 (≈ 1.88 µM)		2.08 (≈ 3.77 µM)	MIC S11 [2]: 0.097; MIC S7 [2]: 1.038
CNc1cc(F)c(F)c2c1[nH]c1ncc(-c3ccc4ccc(C(=O)O)c(=O)n4c3)c(N3CC[C@H]4CCN(C)[C@H]4C3)c12 [Example 3.04A, 7-[4-[(3aR,7aR)-1-methyl-3,3a,4,5,7,7a-hexahydro-2H-pyrrolo[2,3-c]pyridin-6-yl]-5,6-difluoro-8-(methylamino)-9H-pyrido[2,3-b]indol-3-yl]-4-oxo-quinolizine-3-carboxylic acid]	< 98	< 98	< 98	0.218 (≈ 0.39 µM)	0.218 (≈ 0.39 µM)	0.218 (≈ 0.39 µM)	0.218	0.082 (≈ 0.147 µM)	0.218 (≈ 0.39 µM)	0.027 (≈ 0.0483 µM)	1.75 (≈ 3.13 µM)	1.75 (≈ 3.13 µM)	0.436 (≈ 0.781 µM)	3.49 (≈ 6.25 µM)	
CNc1cc(F)c(C#N)c2c1[nH]c1ncc(-c3ccc4ccc(C(=O)O)c(=O)n4c3)c(N3C[C@H]4CCN(C)[C@H]4C3)c12 (single isomer, unassigned) [Example 1.16, 7-[4-[cis-1-methyl-2,3,3a,4,6,6a-hexahydropyrrolo[3,4-b]pyrrol-5-yl]-5-cyano-6-fluoro-8-(methylamino)-9H-pyrido[2,3-b]indol-3-yl]-4-oxo-quinolizine-3-carboxylic acid]							0.216								IC50 (S. aureus (ATCC29213)): < 98 nM; IC50 [1]: < 98 nM; IC50 (A. baumannii (ATCC17978)): < 98 nM; MIC S1 ([2]; A. baumannii ATCC 19606): 0.431; MIC S2 ([2]; A. baumannii ATCC 51432): 0.216; MIC S3 ([2]; A. baumannii ATCC BAA-747): 0.216; MIC S11 [2]: 0.040; MIC S10 ([2]; E. coli ATCC BAA-2340): 0.216; MIC S4 ([2]; K. pneumoniae ATCC 10031): 0.027; MIC S5 ([2]; K. pneumoniae ATCC 700603): 1.724; MIC S6 ([2]; K. pneumoniae ATCC BAA-2146): 1.724; MIC S7 [2]: 0.431; MIC S8 ([2]; P. aeruginosa ATCC BAA-2113): 3.447
